As a reminder, the IC50 is the concentration that inhibits the measured activity by half. For orientation: EC50 means the concentration giving half of the maximal effect.

These results are taken from US10836770B2, “Imidazopyridazine compounds useful as modulators of IL-12, IL-23 and/or INF alpha responses” (priority 2016, dated 2020).

Each structure is given as a SMILES string.

Test [1] has as its system IFNα-stimulated Kit225 T cells with STAT-dependent luciferase reporter. Description: Kit225 T cell assay, IFNα stimulated STAT-dependent luciferase reporter. In kind it is cell-based, human. The following applies: Homo sapiens, KIT225, read-out: IFNa Kit225 Reporter, LE (IC50, uM). How it is done:
(§1) Kit225 T cells with a stably-integrated STAT-dependent luciferase reporter were plated in RPMI (GIBCO) containing 10% heat-inactivated FBS (GIBCO) and 100 U/mL PenStrep (GIBCO). The cells were then stimulated with either 20 ng/mL human recombinant IL-23 or 200 U/mL human recombinant IFNα (PBL InterferonSource) for 5-6 hours. Luciferase expression was measured using the STEADY-GLO® Luciferase Assay System (PROMEGA®) according to the manufacturer's instructions.

Test [2] deals with T1, recombinantly expressed His-tagged protein corresponding to amino acids 575-869 of human Tyk2 (Homo sapiens, UniProt P29597).
T1 construct: made in house
T1 sequence (P29597 with tags, fused parts or gaps): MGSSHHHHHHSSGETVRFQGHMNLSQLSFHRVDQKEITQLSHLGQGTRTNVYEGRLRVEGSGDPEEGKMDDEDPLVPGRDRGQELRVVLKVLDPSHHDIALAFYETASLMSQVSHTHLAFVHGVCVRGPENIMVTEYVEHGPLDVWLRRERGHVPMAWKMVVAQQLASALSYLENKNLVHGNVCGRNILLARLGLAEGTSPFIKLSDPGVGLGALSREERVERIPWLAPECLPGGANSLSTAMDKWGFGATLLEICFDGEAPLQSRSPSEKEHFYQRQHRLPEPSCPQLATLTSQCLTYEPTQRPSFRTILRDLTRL
Description: Probe displacement assay (scintillation proximity, radiolabeled probe). In kind it is binding. How it is done:
The probe displacement assay is conducted as follows: In a […], test compounds along with recombinantly expressed His-tagged protein corresponding to amino acids 575-869 of human Tyk2 (sequence shown below) at 2.5 nM, 40 nM ((R)—N-(1-(3-(8-methyl-5-(methylamino)-8H-imidazo[4,5-d]thiazolo[5,4-b]pyridin-2-yl)phenyl)ethyl)-2-([^3H]methylsulfonyl)benzamide) (preparation described below) and 80 μg/mL Copper His-Tag scintillation proximity assay beads (Perkin Elmer, Catalog #RPNQ0095) in 50 mM HEPES, pH 7.5, containing 100 μg/mL bovine serum albumin and 5% DMSO were incubated for 30 minutes at room temperature. […] The IC50 value is defined as the concentration of test compound required to inhibit radiolabeled probe binding by 50%.
Protein Sequence of recombinant Hig-tagged Tyk2 (575-869):
The preparation of radiolabeled probe, (R)—N-(1-(3-(8-methyl-5-(methylamino)-8H-imidazo[4,5-d]thiazolo[5,4-b]pyridin-2-yl)phenyl)ethyl)-2-([^3H]methylsulfonyl)benzamide, was performed as described below: […]
In general terms: Scintillation proximity formats need no separation of bound from free tracer.

Test [3] concerns IL-23-stimulated Kit225 T cells with STAT-dependent luciferase reporter. Description: Kit225 T cell assay, IL-23 stimulated STAT-dependent luciferase reporter. The class given is cell-based, human. The following applies: Homo sapiens, KIT225, read-out: IL-23 Kit225 Reporter, LE (IC50, uM). The procedure:
as §1

On to `CNC(=O)c1nn(C)cc1Nc1cc(NC)c2ncc(C(=O)NC3CC3)n2n1` [Example 1, N-cyclopropyl-6-((1-methyl-3-(methylcarbamoyl)-1H-pyrazol-4-yl)amino)-8-(methylamino)imidazo[1,2-b]pyridazine-3-carboxamide], for which the IC50 was found to be 0.37 µM in test [1] and 1.32 µM in test [3]. For the same compound, the EC50 in test [2] was 20 nM.
As for `CNc1cc(Nc2cn(C)nc2C(=O)Nc2ccccc2)nn2c(C(=O)NC3CC3)cnc12` [Example 2], the figures for the IC50 in test [1] and in test [3] were 0.68 µM and 0.94 µM, respectively. In test [2], the EC50 amounted to 3 nM.
The corresponding values for `CNc1cc(Nc2cn(C)nc2C(=O)Nc2ccccn2)nn2c(C(=O)NC3CC3)cnc12` [Example 4] are 0.24 µM, 0.35 µM and 7.6 nM.
The corresponding values for `CNc1cc(Nc2cn(C)nc2C(=O)Nc2cccnc2)nn2c(C(=O)NC3CC3)cnc12` [Example 5] are 0.07 µM, 0.34 µM and 10 nM.
As to `CNc1cc(Nc2cn(C)nc2C(=O)Nc2ccncc2)nn2c(C(=O)NC3CC3)cnc12` [Example 6], the IC50 amounted to 0.19 µM in test [1] and 0.07 µM in test [3]. Also, the EC50 in test [2] stood at 3.84 nM.
The corresponding values for `CNc1cc(Nc2cn(C)nc2C(=O)Nc2cc(C)c(C)nn2)nn2c(C(=O)NC3CC3)cnc12` [Example 7] are 0.19 µM, 0.32 µM and 20 nM.
The corresponding values for `CNc1cc(Nc2cn(C)nc2C(=O)Nc2cncnc2)nn2c(C(=O)NC3CC3)cnc12` [Example 8] are 0.22 µM, 0.26 µM and 7.67 nM.
The corresponding values for `CNc1cc(Nc2cn(C)nc2C(=O)NC(C)C)nn2c(C(=O)NC3CC3)cnc12` [Example 9] are 0.48 µM, 0.65 µM and 30 nM.
For `[2H]C([2H])([2H])NC(=O)c1nn(C)cc1Nc1cc(NC)c2ncc(C(=O)NC3CC3)n2n1` [Example 10], the IC50 in test [1] is 0.4 µM; in test [3], 0.96 µM. Moreover, the EC50 in test [2] turned out to be 30 nM.
The corresponding values for `CNc1cc(Nc2cn(C)nc2C(=O)Nc2ccc(OC)nc2)nn2c(C(=O)NC3CC3)cnc12` [Example 11] are 0.48 µM, 0.52 µM and 20 nM.
On the same counts, the results for `CNc1cc(Nc2cn(C)nc2C(=O)Nc2ccc(OC)cc2)nn2c(C(=O)NC3CC3)cnc12` [Example 12] are 0.11 µM, 0.12 µM and 7.59 nM.
On the same counts, the results for `CNc1cc(Nc2cn(C)nc2C(=O)Nc2ccc3c(c2)OCO3)nn2c(C(=O)NC3CC3)cnc12` [Example 13] are 0.21 µM, 0.33 µM and 7.77 nM.
With `CNC(=O)c1nn(C)cc1Nc1cc(NC)c2ncc(C(=O)N[C@@H]3C[C@@H]3F)n2n1` [Example 14], the IC50 in test [1] was found to be 0.25 µM; in test [3] it was 0.28 µM. Moreover, in test [2], the EC50 stood at 10 nM.
On the same counts, the results for `CNc1cc(Nc2cn(C)nc2C(=O)Nc2ccccc2)nn2c(C(=O)N[C@@H]3C[C@@H]3F)cnc12` [Example 15] are 0.11 µM, 0.2 µM and 9.37 nM.
The corresponding values for `CNc1cc(Nc2cn(C)nc2C(=O)NC2CC2)nn2c(C(=O)NC3CC3)cnc12` [Example 16] are 0.14 µM, 0.25 µM and 4.49 nM.
On the same counts, the results for `CNc1cc(Nc2cn(C)nc2C(=O)NCC(C)C)nn2c(C(=O)NC3CC3)cnc12` [Example 17] are 0.49 µM, 0.16 µM and 40 nM.
Take `CNc1cc(Nc2cn(C)nc2C(=O)NCCCN(C)C)nn2c(C(=O)NC3CC3)cnc12` [Example 18]: the IC50 in test [1] was 0.77 µM; in test [3], 0.47 µM. Further, the EC50 in test [2] amounted to 50 nM.
The corresponding values for `CNc1cc(Nc2cn(C)nc2C(=O)NC2CCC2)nn2c(C(=O)NC3CC3)cnc12` [Example 19] are 12.5 µM, 0.59 µM and 100 nM.
On the same counts, the results for `CCNC(=O)c1nn(C)cc1Nc1cc(NC)c2ncc(C(=O)NC3CC3)n2n1` [Example 20] are 0.81 µM, 1.12 µM and 30 nM.
Turning to `CNc1cc(Nc2cn(C)nc2C(=O)Nc2cccc(F)c2)nn2c(C(=O)NC3CC3)cnc12` [Example 21], the figures for the IC50 in test [1] and in test [3] were 0.5 µM and 0.24 µM, respectively. In addition, the EC50 in test [2] is 50 nM.
In the case of `CNc1cc(Nc2cn(C)nc2C(=O)Nc2cccc(C)c2)nn2c(C(=O)NC3CC3)cnc12` [Example 22], the IC50 in test [1] was 0.35 µM; in test [3], 0.27 µM. Further, in test [2], the EC50 came to 20 nM.
With `CNc1cc(Nc2cn(C)nc2C(=O)Nc2ccc(F)cc2)nn2c(C(=O)NC3CC3)cnc12` [Example 23], the IC50 was 0.81 µM in test [1] and 0.43 µM in test [3]. In addition, the EC50 in test [2] turned out to be 20 nM.
On the same counts, the results for `CNc1cc(Nc2cn(C)nc2C(=O)Nc2ccc3ncsc3c2)nn2c(C(=O)NC3CC3)cnc12` [Example 24] are 0.34 µM, 0.28 µM and 8.4 nM.
Turning to `CNc1cc(Nc2cn(C)nc2C(=O)Nc2ccccc2F)nn2c(C(=O)NC3CC3)cnc12` [Example 25], the figures for the IC50 in test [1] and in test [3] were 0.19 µM and 0.13 µM, respectively. In test [2], the EC50 worked out at 8.89 nM.
As for `CNc1cc(Nc2cn(C)nc2C(=O)Nc2ccc(N(C)C)cc2)nn2c(C(=O)NC3CC3)cnc12` [Example 27], the IC50 in test [1] worked out at 0.16 µM; in test [3], 0.02 µM. Further, in test [2], the EC50 came out at 6.8 nM.
The corresponding values for `CCn1cc(Nc2cc(NC)c3ncc(C(=O)NC4CC4)n3n2)c(C(=O)NC)n1` [Example 28, N-cyclopropyl-6-((1-ethyl-3-(methylcarbamoyl)-1H-pyrazol-4-yl)amino)-8-(methylamino)imidazo[1,2-b]pyridazine-3-carboxamide] are 0.4 µM, 0.21 µM and 20 nM.
Turning to `CCn1cc(Nc2cc(NC)c3ncc(C(=O)NC4CC4)n3n2)c(C(=O)Nc2cncnc2)n1` [Example 29], the IC50 stood at 1.04 µM in test [1] and 0.24 µM in test [3]. Also, in test [2], the EC50 came to 100 nM.
In the case of `CCn1cc(Nc2cc(NC)c3ncc(C(=O)NC4CC4)n3n2)c(C(=O)Nc2ccccc2)n1` [Example 31], the figures for the IC50 in test [1] and in test [3] were 0.3 µM and 0.72 µM, respectively. The EC50 in test [2] came out at 9.39 nM.
On the same counts, the results for `CNC(=O)c1n[nH]cc1Nc1cc(NC)c2ncc(C(=O)NC3CC3)n2n1` [Example 32, N-cyclopropyl-6-((3-(methylcarbamoyl)-1H-pyrazol-4-yl)amino)-8-(methylamino)imidazo[1,2-b]pyridazine-3-carboxamide] are 1.65 µM, 0.83 µM and 30 nM.
The corresponding values for `CNc1cc(Nc2c[nH]nc2C(=O)Nc2cccnc2)nn2c(C(=O)NC3CC3)cnc12` [Example 33] are 5.82 µM, 1 µM and 30 nM.
On the same counts, the results for `CNc1cc(Nc2c[nH]nc2C(=O)Nc2ccc(OC)nc2)nn2c(C(=O)NC3CC3)cnc12` [Example 34] are 0.81 µM, 0.58 µM and 2.47 nM.
Regarding `CNC(=O)c1cn(C)nc1Nc1cc(NC)c2ncc(C(=O)NC3CC3)n2n1` [Example 35, N-cyclopropyl-6-((1-methyl-4-(methylcarbamoyl)-1H-pyrazol-3-yl)amino)-8-(methylamino)imidazo[1,2-b]pyridazine-3-carboxamide], the values for the IC50 in test [1] and in test [3] were 0.47 µM and 1.09 µM, respectively. Further, the EC50 in test [2] came to 4.83 nM.
For the compound `CNc1cc(Nc2nn(C)cc2C(=O)Nc2ccccc2)nn2c(C(=O)NC3CC3)cnc12` [Example 36], the 50% inhibitory concentration (IC50) was 11.9 µM in test [1] and 3.33 µM in test [3]. In addition, the EC50 in test [2] was 130 nM.
On the same counts, the results for `CNc1cc(Nc2cnn(C)c2C(=O)O)nn2c(C(=O)NC3CC3)cnc12` [Example 37, 4-((3-(cyclopropylcarbamoyl)-8-(methylamino)imidazo[1,2-b]pyridazin-6-yl)amino)-1-methyl-1H-pyrazole-5-carboxylic acid] are 1.39 µM, 2.34 µM and 50 nM.
On to `CNc1cc(Nc2cnn(C)c2C(=O)Nc2ccccc2)nn2c(C(=O)NC3CC3)cnc12` [Example 38], for which the IC50 in test [1] worked out at 12.5 µM; in test [3] it was 4.46 µM. The EC50 in test [2] stood at 50 nM.
As to `CNc1cc(Nc2csnc2C(=O)Nc2ccc(OC)cc2)nn2c(C(=O)NC3CC3)cnc12` [Example 63], in test [1], the IC50 is 0.29 µM. Also, in test [2], the EC50 came to 6.04 nM.
